Test results reported in PubChem BioAssay AID330 (DTP/NCI, 2004).
Where “and” joins values, the source holds several entries; their conditions need not be identical. Equal values may be shown once. Inconclusive results and toxic doses are left out.

Test system: P388 leukemia ip, CD2F1 mice, survival T/C
Test: NCI In Vivo Anticancer Drug Screen. Data for tumor model P388 Leukemia (intraperitoneal) in CD2F1 (CDF1) mice
Details: endpoint: median survival time, higher = longer survival
How it was run: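 Mice carrying the transplanted tumor received test compound or vehicle. Survival was recorded in each group, and the value is the treated-group measurement divided by that of the vehicle-treated control group.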

[1] = dose: 50.0 mg/kg/injection, schedule: Q01DX005 (ip), vehicle: saline
[2] = dose: 50.0 mg/kg/injection, schedule: Q01DX005 (ip), vehicle: saline with Tween-80
[3] = dose: 100.0 mg/kg/injection, schedule: Q01DX005 (ip), vehicle: saline with Tween-80
[4] = dose: 200.0 mg/kg/injection, schedule: Q01DX005 (ip), vehicle: saline with Tween-80
[5] = dose: 50.0 mg/kg/injection, schedule: Q01DX005 (ip), vehicle: Klucel (hydroxypropylcellulose) (HPC)
[6] = dose: 100.0 mg/kg/injection, schedule: Q01DX005 (ip), vehicle: Klucel (hydroxypropylcellulose) (HPC)
[7] = dose: 200.0 mg/kg/injection, schedule: Q01DX005 (ip), vehicle: Klucel (hydroxypropylcellulose) (HPC)
[8] = dose: 100.0 mg/kg/injection, schedule: Q04DX002 (ip), vehicle: Klucel (hydroxypropylcellulose) (HPC)
[9] = dose: 200.0 mg/kg/injection, schedule: Q04DX002 (ip), vehicle: Klucel (hydroxypropylcellulose) (HPC)
[10] = dose: 12.5 mg/kg/injection, schedule: Q01DX009 (ip), vehicle: saline
[11] = dose: 25.0 mg/kg/injection, schedule: Q01DX009 (ip), vehicle: saline
[12] = dose: 50.0 mg/kg/injection, schedule: Q01DX009 (ip), vehicle: saline
[13] = dose: 60.0 mg/kg/injection, schedule: Q01DX005 (ip), vehicle: saline with Tween-80
[14] = dose: 120.0 mg/kg/injection, schedule: Q01DX005 (ip), vehicle: saline with Tween-80
[15] = dose: 240.0 mg/kg/injection, schedule: Q01DX005 (ip), vehicle: saline with Tween-80
[16] = dose: 50.0 mg/kg/injection, schedule: Q01DX009 (ip), vehicle: saline with Tween-80
[17] = dose: 100.0 mg/kg/injection, schedule: Q01DX009 (ip), vehicle: saline with Tween-80
[18] = dose: 100.0 mg/kg/injection, schedule: Q04DX003 (ip), vehicle: saline sonified
[19] = dose: 30.0 mg/kg/injection, schedule: Q01DX005 (ip), vehicle: saline with Tween-80
[20] = dose: 6.25 mg/kg/injection, schedule: Q01DX009 (ip), vehicle: saline

CC(=NCc1ccccc1)NOCc1ccccc1
T/C [1]: 114 % of control | T/C (dose: 100.0 mg/kg/injection, schedule: Q01DX005 (ip), vehicle: saline): 108 % of control | T/C (dose: 200.0 mg/kg/injection, schedule: Q01DX005 (ip), vehicle: saline): 101 % of control

COc1ccc2c(c1[N+](=O)[O-])CC[C@@H]1[C@@H]2CC[C@]2(C)C(=O)CC[C@@H]12
T/C (dose: 25.0 mg/kg/injection, schedule: Q01DX005 (ip), vehicle: saline with Tween-80): 103 % of control | T/C [2]: 105 % of control | T/C [3]: 99 % of control | T/C [4]: 86 % of control

CC(=O)Nc1ccc2c(c1)nc(-c1ccccn1)n2CCc1ccccn1
T/C (dose: 25.0 mg/kg/injection, schedule: Q01DX005 (ip), vehicle: Klucel (hydroxypropylcellulose) (HPC)): 103 % of control | T/C [5]: 102 % of control | T/C [6]: 102 % of control | T/C [7]: 102 % of control

C#CCNC(=O)/C(C)=C(\C)c1ccc(F)cc1
T/C (dose: 50.0 mg/kg/injection, schedule: Q04DX002 (ip), vehicle: Klucel (hydroxypropylcellulose) (HPC)): 101 % of control | T/C [8]: 103 % of control | T/C [9]: 111 % of control

Clc1ccc(N=C/C=C\C=C/Nc2ccc(Cl)cc2)cc1
T/C (dose: 5.0 mg/kg/injection, schedule: Q01DX009 (ip), vehicle: saline with Tween-80): 108 % of control | T/C (dose: 10.0 mg/kg/injection, schedule: Q01DX005 (ip), vehicle: saline with Tween-80): 108 % of control | T/C (dose: 10.0 mg/kg/injection, schedule: Q01DX009 (ip), vehicle: saline with Tween-80): 97 % of control | T/C (dose: 20.0 mg/kg/injection, schedule: Q01DX005 (ip), vehicle: saline with Tween-80): 95 % of control | T/C (dose: 20.0 mg/kg/injection, schedule: Q01DX009 (ip), vehicle: saline with Tween-80): 95 % of control | T/C (dose: 40.0 mg/kg/injection, schedule: Q01DX005 (ip), vehicle: saline with Tween-80): 100 % of control | T/C (dose: 80.0 mg/kg/injection, schedule: Q01DX005 (ip), vehicle: saline with Tween-80): 98 % of control | T/C (dose: 160.0 mg/kg/injection, schedule: Q01DX005 (ip), vehicle: saline with Tween-80): 93 % of control

CCc1nc(N)nc(N)c1-c1ccc(N2CCCCC2)c([N+](=O)[O-])c1
T/C (dose: 3.13 mg/kg/injection, schedule: Q01DX009 (ip), vehicle: distilled water + Tween-80): 104 % of control | T/C (dose: 6.25 mg/kg/injection, schedule: Q01DX009 (ip), vehicle: distilled water + Tween-80): 99 % of control | T/C (dose: 12.5 mg/kg/injection, schedule: Q01DX009 (ip), vehicle: distilled water + Tween-80): 95 % of control | T/C (dose: 25.0 mg/kg/injection, schedule: Q01DX009 (ip), vehicle: distilled water + Tween-80): 95 % of control | T/C (dose: 50.0 mg/kg/injection, schedule: Q01DX009 (ip), vehicle: distilled water + Tween-80): 99 % of control and 90 % of control and 92 % of control | T/C (dose: 100.0 mg/kg/injection, schedule: Q01DX009 (ip), vehicle: distilled water + Tween-80): 107 % of control and 86 % of control | T/C (dose: 200.0 mg/kg/injection, schedule: Q01DX009 (ip), vehicle: distilled water + Tween-80): 90 % of control

C[CH2][Sn]([Br])([CH2]C)[c]1ccccc1CN(C)C
T/C [10]: 100 % of control and 114 % of control | T/C [11]: 100 % of control and 114 % of control | T/C [12]: 117 % of control and 124 % of control

COc1ccc(C2C3=C(CC(C)(C)CC3=O)Oc3cc4c(cc32)OCO4)c(OC)c1 (configuration not stated)
T/C [13]: 99 % of control | T/C [14]: 93 % of control | T/C [15]: 92 % of control

CC1(C)C(=O)c2cc(Cl)ccc2C1(C)C
T/C [5]: 103 % of control | T/C [6]: 102 % of control | T/C [7]: 97 % of control

COc1cc2c(cc1OC)C1CC(=O)C(CCCCCCC3CN4CCc5cc(OC)c(OC)cc5C4CC3=O)CN1CC2 (configuration not stated)
T/C (dose: 50.0 mg/kg/injection, schedule: Q01DX009 (ip), vehicle: Klucel (hydroxypropylcellulose) (HPC)): 91 % of control | T/C (dose: 100.0 mg/kg/injection, schedule: Q01DX009 (ip), vehicle: Klucel (hydroxypropylcellulose) (HPC)): 92 % of control | T/C (dose: 200.0 mg/kg/injection, schedule: Q01DX009 (ip), vehicle: Klucel (hydroxypropylcellulose) (HPC)): 99 % of control

CCCCCCCCCCC(O)C(=O)O (configuration not stated)
T/C [16]: 95 % of control | T/C [17]: 89 % of control

[Br][Ga]([Br])[Br]
T/C [11]: 115 % of control | T/C [12]: 100 % of control | T/C [18]: 100 % of control

CCCCC1(CCCCCCCCCO)OCCO1
T/C [8]: 101 % of control | T/C [9]: 99 % of control | T/C (dose: 400.0 mg/kg/injection, schedule: Q04DX002 (ip), vehicle: Klucel (hydroxypropylcellulose) (HPC)): 100 % of control

O=C(Nc1cc(-c2ccccc2)[nH]n1)c1ccccc1F
T/C [19]: 97 % of control | T/C [13]: 97 % of control | T/C [14]: 97 % of control | T/C [15]: 90 % of control

COc1ccc(C2c3cc4c(cc3OC(N3CCCC3)C2C)OCO4)cc1 (configuration not stated)
T/C (dose: 7.5 mg/kg/injection, schedule: Q01DX005 (ip), vehicle: saline with Tween-80): 90 % of control | T/C (dose: 15.0 mg/kg/injection, schedule: Q01DX005 (ip), vehicle: saline with Tween-80): 90 % of control | T/C [19]: 94 % of control | T/C [15]: 90 % of control

N#Cc1ccc(C(N)=O)c(C(N)=O)c1
T/C [2]: 98 % of control | T/C [3]: 102 % of control | T/C [4]: 93 % of control

Cc1cc[n+](C)c2ccccc12
T/C (dose: 9.37 mg/kg/injection, schedule: Q01DX009 (ip), vehicle: saline with Tween-80): 109 % of control | T/C (dose: 18.75 mg/kg/injection, schedule: Q01DX009 (ip), vehicle: saline with Tween-80): 100 % of control | T/C (dose: 37.5 mg/kg/injection, schedule: Q01DX009 (ip), vehicle: saline with Tween-80): 104 % of control

Cc1cc(=O)[nH]c2c1CCCC2
T/C [18]: 107 % of control | T/C (dose: 200.0 mg/kg/injection, schedule: Q04DX003 (ip), vehicle: saline sonified): 96 % of control | T/C (dose: 400.0 mg/kg/injection, schedule: Q04DX003 (ip), vehicle: saline sonified): 92 % of control

CCCCCCCCC[N+]1(CC)CCCCC1
T/C (dose: 3.12 mg/kg/injection, schedule: Q01DX009 (ip), vehicle: saline): 121 % of control | T/C [20]: 121 % of control | T/C [10]: 86 % of control

CCCS(=O)(=O)Nc1ccc(Nc2c3ccccc3nc3ccccc23)c(OC)c1
T/C [20]: 118 % of control | T/C [11]: 150 % of control and 160 % of control | T/C [12]: 150 % of control

N=c1c2c(ncn1Cc1ccccc1)CCN(Cc1ccccc1)C2
T/C (dose: 12.5 mg/kg/injection, schedule: Q01DX009 (ip), vehicle: saline with Tween-80): 101 % of control | T/C (dose: 25.0 mg/kg/injection, schedule: Q01DX009 (ip), vehicle: saline with Tween-80): 100 % of control and 114 % of control | T/C [16]: 104 % of control | T/C [17]: 112 % of control

O=C1N=C2SCCN2C1(c1ccccc1)c1ccccc1
T/C (dose: 25.0 mg/kg/injection, schedule: Q04DX003 (ip), vehicle: Klucel (hydroxypropylcellulose) (HPC)): 100 % of control | T/C (dose: 50.0 mg/kg/injection, schedule: Q04DX003 (ip), vehicle: Klucel (hydroxypropylcellulose) (HPC)): 100 % of control | T/C (dose: 100.0 mg/kg/injection, schedule: Q04DX003 (ip), vehicle: Klucel (hydroxypropylcellulose) (HPC)): 92 % of control | T/C (dose: 200.0 mg/kg/injection, schedule: Q04DX003 (ip), vehicle: Klucel (hydroxypropylcellulose) (HPC)): 109 % of control | T/C (dose: 400.0 mg/kg/injection, schedule: Q04DX003 (ip), vehicle: Klucel (hydroxypropylcellulose) (HPC)): 103 % of control

c1cc2nc(-c3ccc4nc(C5=NCCN5)[nH]c4c3)[nH]c2cc1C1=NCCN1
T/C (dose: 12.5 mg/kg/injection, schedule: Q01DX005 (ip), vehicle: saline): 90 % of control | T/C (dose: 25.0 mg/kg/injection, schedule: Q01DX005 (ip), vehicle: saline): 87 % of control and 90 % of control | T/C [1]: 99 % of control and 91 % of control and 97 % of control

C=C(C)n1c(=O)[nH]c2ccccc21
T/C [12]: 87 % of control | T/C (dose: 100.0 mg/kg/injection, schedule: Q01DX009 (ip), vehicle: saline): 87 % of control | T/C (dose: 200.0 mg/kg/injection, schedule: Q01DX009 (ip), vehicle: saline): 89 % of control
